One assay deals with HDAC2 (Homo sapiens, UniProt Q92769). Kind of assay: In vitro HDAC inhibition assay, HDAC2. Type of assay: biochemical. Particulars: NI = No inhibition at a concentration of 50 pM (footnote b); read-out: HDAC isoform IC50, HDAC2.
A further assay addresses HDAC3/NcoR2 complex (Homo sapiens, UniProt O15379). Briefly: In vitro HDAC inhibition assay, HDAC3. Type of assay: biochemical. To be noted: NI = No inhibition at a concentration of 50 pM (footnote b); read-out: HDAC isoform IC50, HDAC3.
Another assay addresses T1, Human HDAC6 (Homo sapiens, UniProt Q9UBN7).
T1 construct: Full length with N-terminal GST tag, MW=159 kDa; GST (N); host or cells: baculovirus expression system, Sf9 cells
T1 sequence (Q9UBN7 1-1215): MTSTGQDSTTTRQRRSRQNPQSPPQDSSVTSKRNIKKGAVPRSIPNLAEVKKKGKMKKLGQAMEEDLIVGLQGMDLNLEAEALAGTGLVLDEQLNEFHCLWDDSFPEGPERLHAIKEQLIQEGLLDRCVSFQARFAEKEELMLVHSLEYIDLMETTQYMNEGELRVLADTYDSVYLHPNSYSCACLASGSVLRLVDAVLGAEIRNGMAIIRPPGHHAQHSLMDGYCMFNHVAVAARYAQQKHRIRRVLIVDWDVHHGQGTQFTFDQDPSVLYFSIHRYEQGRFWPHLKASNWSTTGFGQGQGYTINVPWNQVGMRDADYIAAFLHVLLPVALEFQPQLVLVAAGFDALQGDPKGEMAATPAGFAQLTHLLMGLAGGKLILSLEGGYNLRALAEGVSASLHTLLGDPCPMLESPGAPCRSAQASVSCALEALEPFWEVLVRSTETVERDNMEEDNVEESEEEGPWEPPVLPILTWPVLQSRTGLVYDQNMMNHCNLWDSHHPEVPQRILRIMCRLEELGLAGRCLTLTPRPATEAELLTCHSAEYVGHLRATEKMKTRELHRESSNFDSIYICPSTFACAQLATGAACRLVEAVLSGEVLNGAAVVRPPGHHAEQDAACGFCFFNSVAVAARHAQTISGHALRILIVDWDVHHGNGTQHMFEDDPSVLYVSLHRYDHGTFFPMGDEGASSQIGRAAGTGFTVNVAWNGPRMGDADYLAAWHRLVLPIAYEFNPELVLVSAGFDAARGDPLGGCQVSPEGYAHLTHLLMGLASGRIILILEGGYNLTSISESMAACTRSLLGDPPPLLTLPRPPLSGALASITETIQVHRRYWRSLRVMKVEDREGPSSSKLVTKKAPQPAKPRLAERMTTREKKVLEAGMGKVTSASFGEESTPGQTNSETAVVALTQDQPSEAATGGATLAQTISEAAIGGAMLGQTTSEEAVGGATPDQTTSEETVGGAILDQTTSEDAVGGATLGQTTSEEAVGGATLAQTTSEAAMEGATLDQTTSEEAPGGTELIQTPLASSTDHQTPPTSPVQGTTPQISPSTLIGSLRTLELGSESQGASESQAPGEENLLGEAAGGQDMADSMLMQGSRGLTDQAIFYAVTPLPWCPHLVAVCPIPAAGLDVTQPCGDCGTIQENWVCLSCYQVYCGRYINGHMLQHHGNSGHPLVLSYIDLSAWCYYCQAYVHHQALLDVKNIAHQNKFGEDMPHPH
Briefly: In vitro HDAC inhibition assay, HDAC6. The format is biochemical. Particulars: read-out: HDAC isoform IC50, HDAC6.

Another assay concerns the target T2, HDAC10 (Homo sapiens, UniProt Q969S8).
T2 sequence (Q969S8 1-669): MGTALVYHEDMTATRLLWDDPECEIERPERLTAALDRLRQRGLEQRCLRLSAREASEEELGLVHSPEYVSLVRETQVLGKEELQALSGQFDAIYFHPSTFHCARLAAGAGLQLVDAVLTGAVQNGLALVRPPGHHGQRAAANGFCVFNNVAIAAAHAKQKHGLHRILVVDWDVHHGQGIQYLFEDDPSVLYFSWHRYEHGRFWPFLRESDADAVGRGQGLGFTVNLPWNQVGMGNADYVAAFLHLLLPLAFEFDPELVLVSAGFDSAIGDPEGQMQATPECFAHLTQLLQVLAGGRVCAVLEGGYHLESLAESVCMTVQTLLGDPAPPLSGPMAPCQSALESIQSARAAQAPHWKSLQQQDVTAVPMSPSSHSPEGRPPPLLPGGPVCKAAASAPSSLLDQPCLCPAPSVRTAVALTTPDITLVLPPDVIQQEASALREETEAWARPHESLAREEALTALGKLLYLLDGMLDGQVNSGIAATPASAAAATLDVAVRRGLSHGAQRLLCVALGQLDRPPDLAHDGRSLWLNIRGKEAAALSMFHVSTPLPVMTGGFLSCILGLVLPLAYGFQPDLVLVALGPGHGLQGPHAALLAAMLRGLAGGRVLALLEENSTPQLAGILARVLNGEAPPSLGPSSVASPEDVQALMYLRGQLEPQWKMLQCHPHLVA
Kind of assay: In vitro HDAC inhibition assay, HDAC10. Type of assay: biochemical. To be noted: NI = No inhibition at a concentration of 50 pM (footnote b); read-out: HDAC isoform IC50, HDAC10.

For another assay, the system named is BxPC-3. Kind of assay: In vitro growth inhibition of pancreatic cancer cell lines (Table 3), BxPC-3. Particulars: Homo sapiens, 72 hours post-treatment, cell viability. Type of assay: cell-based. How it is done: In Vitro growth inhibition of pancreatic cancer cell lines. Four of the present HDACIs were analyzed in the [3-(4,5-dimethylthiazol-2-yl)]-2,5-diphenyltetrazolium bromide (MTT) assay in four pancreatic cancer cell lines (Table 3).

Another assay deals with BxPC3. Briefly: In vitro growth inhibition (GI), MTS cell proliferation assay (Table 5), BxPC3. To be noted: Homo sapiens, BXPC-3, 72 hours post-treatment. Type of assay: cell-based. In general terms: Tetrazolium assays rely on reduction of a dye to a coloured formazan, in cell work by metabolically active cells.
The next assay has as its system L3.6pl. Briefly: In vitro growth inhibition (GI), MTS cell proliferation assay (Table 5), L3.6pl. Type of assay: cell-based. Particulars: Homo sapiens, 72 hours post-treatment.
The test system of assay [1] is L3.6pl pancreatic cancer cells. Kind of assay: Apoptosis by Hoechst staining and PARP cleavage. Type of assay: cell-based. To be noted: 10 μM, 24 hours after the initiation of treatment. How it is done:
FIG. 3 contains photographs and Western immunoblots showing that HDAC inhibitors of present invention induce apoptosis on L3.6p1 pancreatic cancer cells. L3.6p1 pancreatic cancer cells were treated with 10 μM of compound 1, 2 or 4 for 24 hrs as indicated. Cells were collected and processed to Hoechst staining (upper panel) and cell lysates were prepared for Western immunoblotting (lower panel). 50 μg of proteins were separated by SDS-PAGE, transferred to PVDF membrane, and immunoblotted as indicated.

The next assay concerns the target Human HDAC1 (Homo sapiens, UniProt Q13547). Kind of assay: In vitro HDAC inhibition assay, HDAC1. Particulars: read-out: HDAC isoform IC50, HDAC1; NI = No inhibition at a concentration of 50 pM (footnote b).
For assay [2], the system named is PANC1 cells. Kind of assay: Scratch-wound cell migration assay. The format is cell-based. Also on record: key to Inhibition of cell migration, 24 h / Inhibition of cell migration, 48 h: Level of inhibition (high to low): +++, ++ or +; Level of inhibition (high to low): +++, ++ or +; Level of inhibition (high to low): +++, ++ or +; no inhibition: −. To be noted: for Inhibition of cell migration, 24 h: PANC1, 24 h post wounding; for Inhibition of cell migration, 48 h: PANC1, 48 h post wounding. How it is done:
FIG. 2 contains photographs of PANC1 cells treated with present compounds 9 and 6 taken 24 and 48 hours (post wounding) after a scratch was made through a confluent layer of cells; and
PANC1 Cell migration and effect on T and NK Cells. The effect of HDAC6 inhibition on cell migration and cellular cytotoxicity was evaluated. […] Thus, these HDAC6-selective inhibitors could function well to block metastasis. However, in contrast to the effect observed on cell migration, none of the compounds tested affected CD8+ T cell or natural killer (NK) cell-mediated cytotoxicity, despite the ability of the compounds to substantially increase the levels of acetyl-tubulin in these cell lines.

Another assay relates to acetylated alpha-tubulin. Kind of assay: Accumulation of acetylated alpha-tubulin in pancreatic cancer cells. The format is cell-based. To be noted: FIG. 1A. An excerpt:
Cell cycle and inhibition of alpha-tubulin deacetylation.

The subject of assay [3] is PANC1 cells. Briefly: Cell cycle analysis. The format is cell-based. To be noted: FIG. 1B, accumulation in the G2/M phase. An excerpt: This finding is consistent with cell cycle data, which indicate that treatment of pancreatic cancer cells with a present HDACIs results in an accumulation of cells in the G2/M phase of the cell cycle.

SMILES strings stand for the structures. pIC50: −log10 of the molar value.

Sequence of HDAC2 (Q92769 whole entry, canonical isoform): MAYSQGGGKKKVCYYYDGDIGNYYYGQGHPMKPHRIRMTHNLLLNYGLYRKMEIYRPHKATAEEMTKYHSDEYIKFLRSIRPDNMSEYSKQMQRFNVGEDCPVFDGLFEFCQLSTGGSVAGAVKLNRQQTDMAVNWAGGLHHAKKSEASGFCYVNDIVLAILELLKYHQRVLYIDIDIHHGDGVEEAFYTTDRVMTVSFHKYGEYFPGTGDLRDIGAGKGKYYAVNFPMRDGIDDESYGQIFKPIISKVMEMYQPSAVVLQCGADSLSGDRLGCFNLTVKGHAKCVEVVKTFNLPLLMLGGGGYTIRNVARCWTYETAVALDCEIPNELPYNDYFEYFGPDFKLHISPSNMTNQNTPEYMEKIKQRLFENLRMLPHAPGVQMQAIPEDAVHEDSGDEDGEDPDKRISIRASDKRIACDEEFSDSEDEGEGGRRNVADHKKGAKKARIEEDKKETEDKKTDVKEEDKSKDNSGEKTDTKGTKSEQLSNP
Sequence of HDAC3/NcoR2 complex (O15379 whole entry, canonical isoform): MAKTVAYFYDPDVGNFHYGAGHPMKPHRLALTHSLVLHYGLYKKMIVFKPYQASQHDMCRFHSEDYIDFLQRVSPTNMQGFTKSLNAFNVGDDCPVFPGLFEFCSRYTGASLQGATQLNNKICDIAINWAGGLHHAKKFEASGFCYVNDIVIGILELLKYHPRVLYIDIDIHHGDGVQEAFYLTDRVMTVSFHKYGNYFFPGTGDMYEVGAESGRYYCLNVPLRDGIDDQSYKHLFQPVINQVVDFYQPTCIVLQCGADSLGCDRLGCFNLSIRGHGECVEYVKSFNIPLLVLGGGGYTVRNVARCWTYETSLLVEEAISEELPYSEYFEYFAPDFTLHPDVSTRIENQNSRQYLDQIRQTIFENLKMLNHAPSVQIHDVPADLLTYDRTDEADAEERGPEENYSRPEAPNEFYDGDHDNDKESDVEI
Sequence of HDAC3/NcoR2 complex (Q9Y618 395-489 partner limits assumed): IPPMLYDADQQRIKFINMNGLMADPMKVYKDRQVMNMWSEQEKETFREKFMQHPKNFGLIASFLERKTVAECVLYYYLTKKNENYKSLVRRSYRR
Sequence of Human HDAC1 (Q13547 whole entry, canonical isoform): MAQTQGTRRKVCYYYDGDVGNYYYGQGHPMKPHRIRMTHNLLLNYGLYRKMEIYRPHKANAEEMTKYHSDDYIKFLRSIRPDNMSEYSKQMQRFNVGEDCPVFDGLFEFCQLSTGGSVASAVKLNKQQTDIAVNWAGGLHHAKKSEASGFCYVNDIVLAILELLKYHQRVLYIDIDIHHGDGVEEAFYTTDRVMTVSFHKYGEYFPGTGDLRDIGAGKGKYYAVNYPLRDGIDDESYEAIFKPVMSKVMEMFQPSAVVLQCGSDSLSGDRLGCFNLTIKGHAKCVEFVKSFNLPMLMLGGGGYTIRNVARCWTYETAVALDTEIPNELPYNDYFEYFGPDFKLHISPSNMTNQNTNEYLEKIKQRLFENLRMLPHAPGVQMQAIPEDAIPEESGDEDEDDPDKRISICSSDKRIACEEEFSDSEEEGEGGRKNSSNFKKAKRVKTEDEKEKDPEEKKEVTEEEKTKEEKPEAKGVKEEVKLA

Take `O=C(CCc1cc(C(=O)NO)no1)Nc1nc(-c2ccccc2)cs1` [Compound 1, 5-[2-(4-Phenyl-thiazol-2-ylcarbamoyl)-ethyl]-isoxazole-3-carboxylic acid hydroxyl amide]: the pIC50 was 5.94 at HDAC2; 6.49 at HDAC3/NcoR2 complex; 7.51 at Human HDAC6; 6.39 at HDAC10; 6.00 in the assay on BxPC-3; 6.51 at Human HDAC1. The GI50 worked out at 1.5 µM in the assay with BxPC3 and 1.3 µM in the assay on L3.6pl. The “Induction of apoptosis (Hoechst staining and PARP cleavage)” value in [1] is recorded as “effectively induced apoptosis”.
For the compound `Nc1cccc(-c2cc(C(=O)NCCc3cc(C(=O)NO)no3)no2)c1` [Compound 9, 5-(2-{[5-(3-Amino-phenyl)-isoxazole-3-carbonyl]-amino}-ethyl)-isoxazole-3-carboxylic acid hydroxyamide], the pIC50 at HDAC2 was 5.63; on HDAC3/NcoR2 complex, 5.75; on Human HDAC6, 7.77; at HDAC10, 5.28; on Human HDAC1, 5.18. The GI50 in the assay with BxPC3 is 12 µM; in the assay on L3.6pl it was 3.3 µM. Also, in the assay with PANC1 cells [2], the “Inhibition of cell migration, 24 h” value is “+”. For the same compound, the “Inhibition of cell migration, 48 h” value in the assay on PANC1 cells [2] is reported as “−”. Moreover, the “Effect on PANC1 cell migration” value in the assay with PANC1 cells [2] (compared to diluent-treated control cells) is “partial effect”. The “Accumulation of acetylated alpha-tubulin” value in the assay on acetylated alpha-tubulin is on record as “accumulation of acetylated alpha-tubulin”.
Turning to `O=C(Nc1cccc(-c2cc(C(=O)NCCc3cc(C(=O)NO)no3)no2)c1)c1ccccc1` [Compound 12], the negative logarithm of the IC50 (pIC50) at HDAC2 was 4.98; on HDAC3/NcoR2 complex, 5.15; on Human HDAC6, 8.36; at HDAC10, 5.33; on Human HDAC1, 5.53. Moreover, the GI50 in the assay on BxPC3 and in the assay with L3.6pl was greater than 50 µM each time. Moreover, the “Inhibition of cell migration, 24 h” value in the assay on PANC1 cells [2] is “−”. The “Inhibition of cell migration, 48 h” value with PANC1 cells [2] is given as “−”. In addition, in the assay with acetylated alpha-tubulin, the “Accumulation of acetylated alpha-tubulin” value is on record as “accumulation of acetylated alpha-tubulin”.
With `CC(C)(C)OC(=O)Nc1cccc(-c2cc(C(=O)NCc3ccc(C(=O)NO)cc3)no2)c1` [Compound 14, {3-[3-(4-Hydroxycarbamoyl-benzylcarbamoyl)-isoxazol-5-yl]-phenyl}-carbamic acid tert-butyl ester], the pIC50 at HDAC2 is 5.86; at HDAC3/NcoR2 complex, 6.10; on Human HDAC6, 9.19; at HDAC10, 5.56; at Human HDAC1, 6.35. For the same compound, the GI50 is 7.8 µM in the assay with BxPC3 and greater than 50 µM in the assay on L3.6pl. Moreover, in the assay with PANC1 cells [2], the “Inhibition of cell migration, 24 h” value is “−”. In addition, the “Inhibition of cell migration, 48 h” value in the assay on PANC1 cells [2] is on record as “−”. The “Accumulation of acetylated alpha-tubulin” value in the assay on acetylated alpha-tubulin was “accumulation of acetylated alpha-tubulin”. In addition, the Cell cycle arrest entry in the assay with PANC1 cells [3] is recorded as “cell cycle arrest”.
With `CC(C)(C)OC(=O)Nc1ccc(-c2cc(C(=O)NCc3ccc(C(=O)NO)cc3)no2)cc1` [Compound 15, {4-[3-(4-Hydroxycarbamoyl-benzylcarbamoyl)-isoxazol-5-yl]-phenyl}-carbamic acid tert-butyl ester], the pIC50 at HDAC2 was 5.72; at HDAC3/NcoR2 complex, 6.87; on Human HDAC6, 9.48; at HDAC10 it was 5.50; at Human HDAC1, 6.36. Besides, the GI50 in the assay with BxPC3 came out at 8.1 µM; in the assay with L3.6pl, 2 µM. Further, the “Accumulation of acetylated alpha-tubulin” value in the assay on acetylated alpha-tubulin was “accumulation of acetylated alpha-tubulin”. Moreover, in the assay on PANC1 cells [3], the Cell cycle arrest result is “cell cycle arrest”.
On to `O=C(NO)c1ccc(CNC(=O)c2cc(Cn3c4ccccc4c4ccccc43)on2)cc1` [Compound 18, 5-Carbazol-9-ylmethyl-isoxazole-3-carboxylic acid 4-hydroxycarbamoyl-benzylamide], for which the pIC50 at HDAC2 is 5.86; at HDAC3/NcoR2 complex, 6.32; on Human HDAC6 it was 9.22; on HDAC10, 4.65; on Human HDAC1 it was 6.31. The values for the GI50 in the assay with BxPC3 and in the assay on L3.6pl were 2.4 µM and 1.3 µM, respectively. For the same compound, the “Inhibition of cell migration, 24 h” value in the assay with PANC1 cells [2] is given as “+”. Besides, the “Inhibition of cell migration, 48 h” value in the assay on PANC1 cells [2] is listed as “−”. For the same compound, the “Accumulation of acetylated alpha-tubulin” value with acetylated alpha-tubulin is on record as “accumulation of acetylated alpha-tubulin”. The Cell cycle arrest entry with PANC1 cells [3] is on record as “cell cycle arrest”.

By pIC50 is commonly meant −log10 of the IC50, conventionally taken in molar units. A word on the GI50: it is the concentration at which growth is held to half of that of the control.

The values are drawn from patent US11739064B2, “HDAC inhibitors and therapeutic methods using the same” (THE BOARD OF TRUSTEES OF THE UNIVERSITY OF ILLINOIS, priority 2015, dated 2023).
